Measured values published in publication PMC3731359 (PLoS ONE, 2013).
One block for each molecule: values may come before it. Ends that are not written are not given here. * marks the point of attachment. Biotin = O=C1N[C@H]2[C@H](CS[C@H]2CCCCC(=O)*)N1

Legend:
NAE [1] = target: T1, NAE (Homo sapiens, UniProt Q13564+Q8TBC4); details: cited from earlier work
T1 construct: made in house; host or cells: E. coli BL21(DE3)pLysS
T1 sequence (Q8TBC4 22-463 limits assumed): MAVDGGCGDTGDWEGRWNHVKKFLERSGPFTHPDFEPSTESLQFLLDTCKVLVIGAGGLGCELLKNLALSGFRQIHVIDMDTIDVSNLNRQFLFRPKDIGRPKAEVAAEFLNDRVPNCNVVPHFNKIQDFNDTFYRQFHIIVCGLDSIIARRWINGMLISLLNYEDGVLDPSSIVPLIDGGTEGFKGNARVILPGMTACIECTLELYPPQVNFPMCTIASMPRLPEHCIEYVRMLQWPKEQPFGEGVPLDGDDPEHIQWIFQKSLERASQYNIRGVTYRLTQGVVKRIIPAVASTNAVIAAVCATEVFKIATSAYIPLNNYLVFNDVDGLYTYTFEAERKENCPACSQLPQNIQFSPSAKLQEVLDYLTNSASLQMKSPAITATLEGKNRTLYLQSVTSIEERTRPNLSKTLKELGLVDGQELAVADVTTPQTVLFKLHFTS
T1 sequence (Q13564 1-534 partner): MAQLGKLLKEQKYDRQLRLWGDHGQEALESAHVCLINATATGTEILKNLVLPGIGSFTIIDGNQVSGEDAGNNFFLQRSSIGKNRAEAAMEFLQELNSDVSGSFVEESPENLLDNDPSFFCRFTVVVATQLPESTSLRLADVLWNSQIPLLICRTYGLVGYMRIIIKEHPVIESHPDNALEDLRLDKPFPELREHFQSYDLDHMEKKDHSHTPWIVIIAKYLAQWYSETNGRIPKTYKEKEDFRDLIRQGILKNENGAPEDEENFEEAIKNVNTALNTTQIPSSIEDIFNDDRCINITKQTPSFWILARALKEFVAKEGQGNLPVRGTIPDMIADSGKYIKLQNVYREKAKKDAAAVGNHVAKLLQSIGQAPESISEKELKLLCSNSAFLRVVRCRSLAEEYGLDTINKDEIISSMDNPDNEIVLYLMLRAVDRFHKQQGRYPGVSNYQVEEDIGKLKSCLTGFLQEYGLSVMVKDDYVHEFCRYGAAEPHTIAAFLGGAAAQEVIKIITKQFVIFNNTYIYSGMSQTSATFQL
Excerpt: […] binds to the nucleotide binding pocket of NAE as an AMP analog with a sulfamate ...

NAE (E1) = assay: Western blot: formation of UB∼NAE thioester conjugates; assay type: biochemical; details: 5 µM HA-tagged protein, 1 µM NAE, 1 mM ATP, 1 h, room temperature, anti-HA Western blot
Method: (§1) Figure 6 Transfer of phage selected UB variants to NAE (E1), Ubc12 (E2), and cullin-3. HA-tagged wt UB, wt Nedd8 and UB variants were used in the assay. In the control reaction, either Ubc12 or cullin-3 in complex with Rbx1 was missing. The blots were probed with a mouse anti-HA antibody and a goat anti-mouse IgG antibody linked to HRP.
(§2) 20 µL of the reaction mixture were loaded on a 4–15% SDS-PAGE gel (Bio-Rad). After electrophoresis, the protein bands were electroblotted onto a piece of polyvinylidene fluoride membrane (Bio-Rad). The membrane was blocked with 3% BSA in TBS buffer for 1 hour followed by incubation with 3% BSA in TBS buffer containing 1∶500 diluted 200 µg/mL anti-HA antibody (Santa Cruz Biotechnology) and 1∶10,000 diluted anti-mouse horseradish peroxidase conjugate (Pierce) for 1 hour, respectively. The membrane was then washed 5 times with TBS-T buffer and 5 times with TBS buffer followed by detection with the ECL luminescent detection kit (GE Healthcare).

Ubc12 (E2) = assay: Western blot: transfer of UB variants to Ubc12; assay type: biochemical; details: 5 µM HA-tagged protein, 1 µM NAE, 1 µM Ubc12, 1 µM cullin, 1 mM ATP, 1 h, room temperature, anti-HA Western blot
Method: as §1, §2

cullin-3 = assay: Western blot: transfer of UB variants to cullin-3; assay type: biochemical; details: 5 µM HA-tagged protein, 1 µM NAE, 1 µM Ubc12, 1 µM cullin, 1 mM ATP, 1 h, room temperature, anti-HA Western blot
Method: as §1, §2

NAE [2] = target: T1, NAE; details: Arg72Ala mutant of UB by site directed mutagenesis; cited from earlier work
Ubc12 = target: T2, Ubc12 (UniProt P61081 1-183); assay: thioester conjugate formation (SDS-PAGE, Western blot); 5 µM biotin labeled peptide with 1 µM NAE, 1 µM Ubc12 and 1 µM cullin, 1 mM ATP, 10 mM MgCl2, 50 µM DTT, TBS, 1 hour, room temperature; streptavidin-HRP blot; covalent conjugates; details: both partners purified
T2 construct: also called E2; source: expressed and purified as previously reported [33]
T2 sequence (looked up): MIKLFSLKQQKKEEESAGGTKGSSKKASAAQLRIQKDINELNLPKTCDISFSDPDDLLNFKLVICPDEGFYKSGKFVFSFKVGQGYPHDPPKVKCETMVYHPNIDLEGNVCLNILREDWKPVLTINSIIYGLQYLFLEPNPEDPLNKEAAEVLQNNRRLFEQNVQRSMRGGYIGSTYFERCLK

Molecule: NS(=O)(=O)OC[C@@H]1C[C@@H](n2ccc3c(N[C@H]4CCc5ccccc54)ncnc32)C[C@@H]1O [MLN4924]
inhibition of NAE (NAE [1]): potent inhibitor of NAE

Molecule: N26: UB variant with single Arg72Ala mutation, C-terminal sequence 71LALRGG76
formation of UB∼NAE conjugates (NAE (E1)): can function as the wt Nedd8 for thioester formation with NAE and Ubc12
transfer from NAE to Ubc12 (UB∼Ubc12 conjugates) (Ubc12 (E2)): efficiently forms UB∼Ubc12 conjugates
transfer to cullin (cullin modification) (cullin-3): substantial cullin modification at a level similar or exceeding that of wt Nedd8
activity with NAE (NAE [2]): previously found to be active with NAE

binding result (Ubc12): binds
B1: biotin-pN26 (VLALRGG) (peptide)
peptide: {Biotin-LC-LC}-VLALRGG
notes: also called pN26 conjugated to biotin; source: synthetic peptide (EZBiolab), labelled with NHS-LC-LC-biotin, HPLC purified
